Assay type in all cases: in vivo
In assay [1] the test system is Echinochloa crus-galli var. crus-galli. Description: Test Example 3: herbicidal effect by application to foliage (Wagner pot, water depth 0.1-0.5 cm). The note with it: Nineteenth Table; application to foliage; application herbicide amount 320 g/ha. Put shortly: (§1)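 Seeds were sown in alluvial soil in Wagner pots, grown for 14 days at 25–30 °C, then sprayed uniformly on foliage with the emulsified compound diluted to a given rate per hectare. Injury was graded three weeks after treatment from 0 (≤5%) to 5 (≥90%).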

Assay [2] deals with Cyperus difformis. The assay is described as above. The note with it: Nineteenth Table; application to foliage; application herbicide amount 320 g/ha. In a few lines:
as §1

For assay [3], the system named is Leptochloa chinensis. The description is as above. The note with it: Nineteenth Table; application to foliage; application herbicide amount 320 g/ha. In a few lines: as §1
For assay [4], the system named is Abutilon theophrasti. As to the kind of experiment: Test Example 4: herbicidal effect by application to foliage (diluvial soil, plastic box). The note with it: Application herbicide amount 320 g/ha; foliage application. In a few lines:
(§2)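 Seeds sown in sterilized diluvial soil, covered ~1.5 cm, grown 14 days in greenhouse at 25° C. to 30° C. Emulsion formulation diluted in water to set rate (g/ha) and sprayed onto stems and leaves. Effect scored visually 3 weeks later on 0–5 scale (5 = ≥90% herbicidal ratio, 0 = ≤5%).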

Assay [5] has as its system Digitaria ciliaris. The description is as above. The note with it: Application herbicide amount 320 g/ha; foliage application. In a few lines:
as §2

Assay [6] deals with Apera spica-venti. The assay is described as above. Conditions: Application herbicide amount 320 g/ha; foliage application. In a few lines: as §2
The test system of assay [7] is Alopecurus myosuroides. The description is as above. Conditions: Application herbicide amount 320 g/ha; foliage application. In a few lines: as §2
In assay [8] the test system is Setaria viridis. The description is as above. Conditions: Application herbicide amount 320 g/ha; foliage application. Put shortly:
as §2

The subject of assay [9] is Veronica persica. The assay is described as above. The note with it: Application herbicide amount 320 g/ha; foliage application. Put shortly: as §2
In assay [10] the test system is Chenopodium album. The description is as above. The note with it: Application herbicide amount 320 g/ha; foliage application. In a few lines:
as §2

The test system of assay [11] is Stellaria media. Described as above. Conditions: Application herbicide amount 320 g/ha; foliage application. Put shortly: as §2
Assay [12] concerns Amaranthus retroflexus. Described as above. Conditions: Application herbicide amount 320 g/ha; foliage application. Put shortly: as §2

SMILES strings stand for the structures.

With `CC(C)N(C)c1nnc2c(C(=O)Nc3nnco3)ccc(C(F)(F)F)n12` [1-122], the “H (herbicidal effect grade)” value in [1] is given as 5 (Herbicidal ratio of 90% or more (almost completely withered)). In addition, the “E (herbicidal effect grade)” value in [2] is on record as 5 (Herbicidal ratio of 90% or more (almost completely withered)). Further, in [3], the “D (herbicidal effect grade)” value was 5 (Herbicidal ratio of 90% or more (almost completely withered)). Further, the “M (Abutilon theophrasti) herbicidal effect grade” value in assay [4] is 5 (Herbicidal ratio of 90% or more (almost completely withered)). In addition, the “F (Digitaria ciliaris) herbicidal effect grade” value in [5] is 5 (Herbicidal ratio of 90% or more (almost completely withered)). Besides, the “L (Apera spica-venti.) herbicidal effect grade” value in assay [6] was 4 (Herbicidal ratio of 70% or more and less than 90%). Besides, the “J (Alopecurus myosuroides) herbicidal effect grade” value in assay [7] is 3 (Herbicidal ratio of 40% or more and less than 70%). The “G (Setaria viridis) herbicidal effect grade” value in assay [8] is 5 (Herbicidal ratio of 90% or more (almost completely withered)). The “R (Veronica persica) herbicidal effect grade” value in assay [9] is recorded as 5 (Herbicidal ratio of 90% or more (almost completely withered)). In assay [10], the “O (Chenopodium album) herbicidal effect grade” value is on record as 5 (Herbicidal ratio of 90% or more (almost completely withered)). For the same compound, the “P (Stellaria media) herbicidal effect grade” value in assay [11] is 5 (Herbicidal ratio of 90% or more (almost completely withered)). Moreover, the “N (Amaranthus retroflexus) herbicidal effect grade” value in assay [12] is reported as 5 (Herbicidal ratio of 90% or more (almost completely withered)).

As for `O=C(Nc1nnco1)c1ccc(C(F)(F)F)n2c(N3CCOCC3)nnc12` [1-110], the “H (herbicidal effect grade)” value in [1] is on record as 5 (Herbicidal ratio of 90% or more (almost completely withered)). The “E (herbicidal effect grade)” value in assay [2] was 5 (Herbicidal ratio of 90% or more (almost completely withered)). Also, the “D (herbicidal effect grade)” value in assay [3] is reported as 5 (Herbicidal ratio of 90% or more (almost completely withered)). Moreover, the “M (Abutilon theophrasti) herbicidal effect grade” value in [4] was 4 (Herbicidal ratio of 70% or more and less than 90%). In addition, the “F (Digitaria ciliaris) herbicidal effect grade” value in [5] is reported as 5 (Herbicidal ratio of 90% or more (almost completely withered)). In addition, the “L (Apera spica-venti.) herbicidal effect grade” value in assay [6] is 3 (Herbicidal ratio of 40% or more and less than 70%). Besides, in [7], the “J (Alopecurus myosuroides) herbicidal effect grade” value was 3 (Herbicidal ratio of 40% or more and less than 70%). Besides, the “G (Setaria viridis) herbicidal effect grade” value in assay [8] is 5 (Herbicidal ratio of 90% or more (almost completely withered)). In assay [9], the “R (Veronica persica) herbicidal effect grade” value was 5 (Herbicidal ratio of 90% or more (almost completely withered)). Further, in assay [10], the “O (Chenopodium album) herbicidal effect grade” value was 5 (Herbicidal ratio of 90% or more (almost completely withered)). Also, the “P (Stellaria media) herbicidal effect grade” value in [11] is 5 (Herbicidal ratio of 90% or more (almost completely withered)). Besides, the “N (Amaranthus retroflexus) herbicidal effect grade” value in [12] is recorded as 5 (Herbicidal ratio of 90% or more (almost completely withered)).

Regarding `Cc1nnc(NC(=O)c2ccc(C(F)(F)F)n3c(SCC(F)(F)F)nnc23)o1` [1-124], the “H (herbicidal effect grade)” value in [1] was 4 (Herbicidal ratio of 70% or more and less than 90%). For the same compound, in assay [2], the “E (herbicidal effect grade)” value is 4 (Herbicidal ratio of 70% or more and less than 90%). In addition, the “D (herbicidal effect grade)” value in [3] was 4 (Herbicidal ratio of 70% or more and less than 90%). Besides, the “M (Abutilon theophrasti) herbicidal effect grade” value in assay [4] is 5 (Herbicidal ratio of 90% or more (almost completely withered)). In addition, the “F (Digitaria ciliaris) herbicidal effect grade” value in [5] is reported as 5 (Herbicidal ratio of 90% or more (almost completely withered)). For the same compound, in assay [6], the “L (Apera spica-venti.) herbicidal effect grade” value is 1 (Herbicidal ratio of 5% or more and less than 20%). Moreover, in [7], the “J (Alopecurus myosuroides) herbicidal effect grade” value is 0 (Herbicidal ratio of 5% or less (almost no effect)). For the same compound, the “G (Setaria viridis) herbicidal effect grade” value in assay [8] was 3 (Herbicidal ratio of 40% or more and less than 70%). Also, the “R (Veronica persica) herbicidal effect grade” value in assay [9] is 2 (Herbicidal ratio of 20% or more and less than 40%). Also, the “O (Chenopodium album) herbicidal effect grade” value in assay [10] was 5 (Herbicidal ratio of 90% or more (almost completely withered)). Moreover, the “P (Stellaria media) herbicidal effect grade” value in assay [11] is 3 (Herbicidal ratio of 40% or more and less than 70%). Moreover, in [12], the “N (Amaranthus retroflexus) herbicidal effect grade” value is 4 (Herbicidal ratio of 70% or more and less than 90%).

With `Cc1nnc(NC(=O)c2ccc(C(F)(F)F)n3c(N4CCS(=O)(=O)CC4)nnc23)o1` [1-120], in assay [1], the “H (herbicidal effect grade)” value was 5 (Herbicidal ratio of 90% or more (almost completely withered)). The “E (herbicidal effect grade)” value in [2] is given as 5 (Herbicidal ratio of 90% or more (almost completely withered)). Moreover, in [3], the “D (herbicidal effect grade)” value is recorded as 5 (Herbicidal ratio of 90% or more (almost completely withered)). Also, the “M (Abutilon theophrasti) herbicidal effect grade” value in assay [4] is 4 (Herbicidal ratio of 70% or more and less than 90%). In addition, the “F (Digitaria ciliaris) herbicidal effect grade” value in assay [5] was 5 (Herbicidal ratio of 90% or more (almost completely withered)). For the same compound, the “L (Apera spica-venti.) herbicidal effect grade” value in [6] was 5 (Herbicidal ratio of 90% or more (almost completely withered)). In addition, the “J (Alopecurus myosuroides) herbicidal effect grade” value in assay [7] is 3 (Herbicidal ratio of 40% or more and less than 70%). The “G (Setaria viridis) herbicidal effect grade” value in assay [8] was 5 (Herbicidal ratio of 90% or more (almost completely withered)). Further, the “R (Veronica persica) herbicidal effect grade” value in assay [9] is on record as 5 (Herbicidal ratio of 90% or more (almost completely withered)). Also, the “O (Chenopodium album) herbicidal effect grade” value in assay [10] was 5 (Herbicidal ratio of 90% or more (almost completely withered)). The “P (Stellaria media) herbicidal effect grade” value in assay [11] was 5 (Herbicidal ratio of 90% or more (almost completely withered)). The “N (Amaranthus retroflexus) herbicidal effect grade” value in assay [12] is listed as 5 (Herbicidal ratio of 90% or more (almost completely withered)).

As for `CCN(CC)c1nnc2c(C(=O)Nc3nnco3)ccc(C(F)(F)F)n12` [1-138], in assay [1], the “H (herbicidal effect grade)” value is 5 (Herbicidal ratio of 90% or more (almost completely withered)). Besides, in [2], the “E (herbicidal effect grade)” value is 4 (Herbicidal ratio of 70% or more and less than 90%). Also, the “D (herbicidal effect grade)” value in assay [3] was 5 (Herbicidal ratio of 90% or more (almost completely withered)). For the same compound, the “M (Abutilon theophrasti) herbicidal effect grade” value in assay [4] was 3 (Herbicidal ratio of 40% or more and less than 70%). Further, the “F (Digitaria ciliaris) herbicidal effect grade” value in assay [5] was 4 (Herbicidal ratio of 70% or more and less than 90%). The “L (Apera spica-venti.) herbicidal effect grade” value in assay [6] is 3 (Herbicidal ratio of 40% or more and less than 70%). In assay [7], the “J (Alopecurus myosuroides) herbicidal effect grade” value is 1 (Herbicidal ratio of 5% or more and less than 20%). In [8], the “G (Setaria viridis) herbicidal effect grade” value is 3 (Herbicidal ratio of 40% or more and less than 70%). In addition, the “R (Veronica persica) herbicidal effect grade” value in assay [9] is recorded as 5 (Herbicidal ratio of 90% or more (almost completely withered)). Moreover, in assay [10], the “O (Chenopodium album) herbicidal effect grade” value is on record as 5 (Herbicidal ratio of 90% or more (almost completely withered)). The “P (Stellaria media) herbicidal effect grade” value in [11] is 5 (Herbicidal ratio of 90% or more (almost completely withered)). Also, the “N (Amaranthus retroflexus) herbicidal effect grade” value in [12] is 4 (Herbicidal ratio of 70% or more and less than 90%).

Source of the values: patent US9708314B2, “Heterocyclic amide compound” (NISSAN CHEMICAL INDUSTRIES, LTD., priority 2013, dated 2017).
